Counter-ions that a name gives are not always drawn.
Experiments:
[1] = system: mice; experiment: Dispel phlegm test of Naringin, Phenol Red excretion in trachea (Example 29); format: in vivo; details: for Dispel phlegm ratio: group given drug / blank control group x 100%; for Excretion quantity of Phenol Red / Rectified excretion quantity of Phenol Red: mice, oral, X±S; for Rectified excretion quantity of Phenol Red: excretion quantity / weight of animal
Method: 1. […] Every group was 10 animals. Eight group were set including negative control group, positive control group, high dose group of Naringin, middle dose group of Naringin, low dose group of Naringin, high dose group of sodium salt of Naringin, middle dose group of sodium salt of Naringin, low dose group of sodium salt of Naringin. […]
• 1) Blank control group: physiological saline, 0.9% NaCl; • 2) Positive control group: 0.2g Tankejing was dissolve into 10 ml physiological saline and the sample concentration was 20 mg/ml to obtain the solution for positive control. • 3) low dose group of Naringin: 0.5 mg/ml solution of Naringin was prepared by weighting out the appropriate amount of 5 mg Naringin and dissolving it by ultrasonication in 10 ml physiological saline. • 4) middle dose group of Naringin: 1.5 mg/ml solution of Naringin was prepared by weighting out the appropriate amount of 15 mg Naringin and dissolving it by ultrasonication in 10 ml physiological saline. • 5) high dose group of Naringin: 4.5 mg/ml solution of Naringin was prepared by weighting out the appropriate amount of 45 mg Naringin and dissolving it by ultrasonication in 10 ml physiological saline. • 6) low dose group of sodium salt of Naringin: 0.5 mg/ml solution of sodium salt of Naringin was prepared by weighting out the appropriate amount of 5 mg sodium salt of Naringin and dissolving it by ultrasonication in 10 ml physiological saline. • 7) middle dose group of sodium salt of Naringin: 1.5 mg/ml solution of sodium salt of Naringin was prepared by weighting out the appropriate amount of 15 mg sodium salt of Naringin and dissolving it by ultrasonication in 10 ml physiological saline. • 8) high dose group of sodium salt of Naringin: 4.5 mg/ml solution of sodium salt of Naringin was prepared by weighting out the appropriate amount of 45 mg sodium salt of Naringin and dissolving it by ultrasonication in 10 ml physiological saline.
The calibration curve was calculated by concentration of Phenol Red as y-axis and OD value as x-axis. And the excretion account of Phenol Red in mice was quantitated by calibration curve. • 2) Animals were fasted for 12 hr before dosing. • 3) Animals were oral administered with labeled number, each animal was administered with 3 min and each group was accomplished in 30 min. • 4) After administered 30 min, every animal was injected 2 ml 5% Phenol Red solution via celiac injection. The time of every animal was 3 min. • 5): Every animal was executed with 3 min interval after celiac injection 30 min, and animal trachea was peeled off with forceps after neck skin sniped, which was riveted on operating table. • 6): plasma and Phenol Red adhered to trachea ektexine was sweeped by 0.9% NaCl solution with an injector. And filter paper was used to blot up the solution. • 7): Scissors cut down the animal trachea including thyroid cartilage and trachea back-end. • 8): The trachea was set in test tube with 1.5 ml 5% NaHCO3. • 9): The experiment of every animal was completed in 3 min. […] X indicates OD value; Y indicates excretion account of Phenol Red. • 14): Rectified excretion account of Phenol Red was calculated by account of Phenol Red and weight of animal. Statistical significance of the data was determined by Student's t-test with SPSS 8.0. Rectified excretion account of Phenol Red= Account of Phenol Red (ng) / weight of animal (kg).

[2] = system: mice; experiment: Antitussive test of Naringenin, spray by high concentration ammonia (Example 30); format: in vivo; details: for R Value: EDT50 of the treatment / EDT50 of the control x 100%; for EDT50: mice, oral, dose 0.2 (mg/20g), spray one hour later
From the text: 1. Animal: 120 healthy male mice weighing 19.5-22.1g was grouped into 8 groups random after labeled, which was selected from 130 male mice weighing 19.3-22.6g. Every group was 15 mice. Eight group were set including negative control group, positive control group, high dose group of Naringenin, middle dose group of Naringenin, low dose group of Naringenin, high dose group of sodium salt of Naringenin, middle dose group of sodium salt of Naringenin, low dose group of sodium salt of Naringenin.
• 1) Blank control group: physiological saline, 0.9% NaCl; • 2) Positive control group: 30mg Dextromethorphan Hydrobromide was dissolve into 20 ml physiological saline and the sample concentration was 1.5 mg/ml to obtain the solution for positive control. • 3) low dose group of Naringenin: weighting out the appropriate amount of Naringenin and dissolving it in physiological saline, then the sample concentration was 0.5 mg/ml. • 4) middle dose group of Naringenin: weighting out the appropriate amount of Naringenin and dissolving it in physiological saline, then the sample concentration was 1.5mg/ml. • 5) high dose group of Naringenin: weighting out the appropriate amount of Naringenin and dissolving it in physiological saline, then the sample concentration was 4.5 mg/ml. • 6) low dose group of sodium salt of Naringenin: weighting out the appropriate amount of sodium salt of Naringenin and dissolving it in physiological saline, then the sample concentration was 0.5 mg/ml. • 7) middle dose group of sodium salt of Naringenin: weighting out the appropriate amount of sodium salt of Naringenin and dissolving it in physiological saline, then the sample concentration was 1.5 mg/ml. • 8) high dose group of sodium salt of Naringenin: weighting out the appropriate amount of sodium salt of Naringenin and dissolving it in physiological saline, then the sample concentration was 4.5 mg/ml.
Animals were oral administered, and were sprayed one hour later. After the spray took out the animals and observed the tussive action. Observed the time of tussis in one minutes, if it appeared typical tussis three times in one minutes(shrinking the abdomen muscle or shrinking chest, puffing mouth at the same time, sometimes appearing tussive sound), we consider it "appearing tussis", otherwise "no tussis".
We calculated the spraying time that half of mice were tusisive by sequential method. And calculated the R, the drug was provided with effect of relieve a cough if R>130%. The drug was provided with remarkable effect of relieve a cough if R>150%. Underside is expressions: R=(EDT50 of the treatment)/(EDT50 of the control)× 100% [formula] EDT50=log^-1c/n ('n' is the number of animal, 'c' is the sum of 'rx' value, 'r' is the number of animal in every group, 'x' is the logarithm of dose(namely spray time).)

SMILES	Dispel phlegm ratio ([1]; 5 mg/kg) [%]	Dispel phlegm ratio ([1]; 15 mg/kg) [%]	Dispel phlegm ratio ([1]; 45 mg/kg) [%]	Excretion quantity of Phenol Red ([1]; 5 mg/kg) [ng]	Rectified excretion quantity of Phenol Red ([1]; 5 mg/kg) [ng/kg]	Excretion quantity of Phenol Red ([1]; 15 mg/kg) [ng]	Rectified excretion quantity of Phenol Red ([1]; 15 mg/kg) [ng/kg]	Excretion quantity of Phenol Red ([1]; 45 mg/kg) [ng]	Rectified excretion quantity of Phenol Red ([1]; 45 mg/kg) [ng/kg]	R Value ([2]; sample concentration 0.5 mg/ml) [%]	R Value ([2]; sample concentration 1.5 mg/ml) [%]	R Value ([2]; sample concentration 4.5 mg/ml) [%]	EDT50 ([2]; sample concentration 0.5 mg/ml) [s]	EDT50 ([2]; sample concentration 1.5 mg/ml) [s]	EDT50 ([2]; sample concentration 4.5 mg/ml) [s]	Effect of relieving cough ([2]; sample concentration 0.5 mg/ml)	Effect of relieving cough ([2]; sample concentration 1.5 mg/ml)	Effect of relieving cough ([2]; sample concentration 4.5 mg/ml)	other results
C[C@@H]1O[C@@H](O[C@H]2[C@H](Oc3cc(O)c4c(c3)O[C@H](c3ccc(O)cc3)CC4=O)O[C@H](CO)[C@@H](O)[C@@H]2O)[C@H](O)[C@H](O)[C@H]1O [Naringin, 4', 5', 7-trihydroxyflavanone-7-rhamnoneglucoside]	159.02	173.12	416.72	0.4914 ± 0.2215	25.5811 ± 11.8338	0.5296 ± 0.2195	26.7597 ± 13.1502	1.1488 ± 0.2431	64.4162 ± 18.7239	–	–	–	–	–	–	–	–	–	dispel phlegm effect ([1]; high dose group compared to positive control group of Tankejing): statistical better than Tankejing; exudates increase of mice trachea ([1]; three doses (low, middle, high), versus negative control group): statistical significance stimulate the exudates increase of mice trachea
C[C@@H]1O[C@@H](O[C@H]2[C@H](Oc3cc(O)c4c(c3)O[C@H](c3ccc(O)cc3)CC4=O)O[C@H](CO)[C@@H](O)[C@@H]2O)[C@H](O)[C@H](O)[C@H]1O [sodium salt of Naringin]	169.37	189.65	432.71	0.5250 ± 0.1265	26.1805 ± 6.9069	0.5748 ± 0.1417	29.3153 ± 7.7189	1.3115 ± 0.3232	66.8867 ± 17.6117	–	–	–	–	–	–	–	–	–	–
O=C1CC(c2ccc(O)cc2)Oc2cc(O)cc(O)c21 (stereo not drawn) [Naringenin, 4', 5, 7 -trihydroxyflavanone]	–	–	–	–	–	–	–	–	–	131.85	169.85	171.23	51.29	66.07	66.61	effect (the drug was provided with effect of relieve a cough if R>130%)	remarkably effect (The drug was provided with remarkable effect of relieve a cough if R>150%)	remarkably effect (The drug was provided with remarkable effect of relieve a cough if R>150%)	time of appearing tussis ([2]; compared with Dextromethorphan Hydrobromide (positive control group)): statistical significance prolonging the time
O=C1C[C@@H](c2ccc(O)cc2)Oc2cc(O)cc(O)c21 [sodium salt of Naringenin]	–	–	–	–	–	–	–	–	–	142.3	178.6	189.1	55.35	69.48	73.56	effect (the drug was provided with effect of relieve a cough if R>130%)	remarkably effect (The drug was provided with remarkable effect of relieve a cough if R>150%)	remarkably effect (The drug was provided with remarkable effect of relieve a cough if R>150%)	–
